Measurements from ChEMBL document CHEMBL1201862, “PubChem BioAssay data set” (2004).
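Each compound was tested at five concentrations against cells in 96-well plates for 48 hours. GI50 = concentration required for 50% inhibition of growth.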 Activity calls are given as the source filed them. No stated cut-off is given here; in the data, active = GI50 up to about 1.1 µM and inactive = higher.

Assays:
Experiment in all cases: DTP human tumour cell line panel, 48 h
A549 = test system: A549
BT-549 = test system: BT-549
CCRF-CEM = test system: CCRF-CEM
HCT-15 = test system: HCT-15
HOP-62 = test system: HOP-62
Hs-578T = test system: Hs-578T
KM12 = test system: KM12
OVCAR-4 = test system: OVCAR-4
OVCAR-5 = test system: OVCAR-5
RXF 393 = test system: RXF 393
SN12C = test system: SN12C
SNB-19 = test system: SNB-19
SNB-75 = test system: SNB-75
TK-10 = test system: TK-10
U-251 = test system: U-251
UACC-62 = test system: UACC-62
SF-539 = test system: SF-539
A498 = test system: A498
MDA-N = test system: MDA-N

Compound	GI50 (A549)	GI50 (BT-549)	GI50 (CCRF-CEM)	GI50 (HCT-15)	GI50 (HOP-62)	GI50 (Hs-578T)	GI50 (KM12)	GI50 (OVCAR-4)	GI50 (OVCAR-5)	GI50 (RXF 393)	GI50 (SN12C)	GI50 (SNB-19)	GI50 (SNB-75)	GI50 (TK-10)	GI50 (U-251)	GI50 (UACC-62)	GI50 (SF-539)	GI50 (A498)	GI50 (MDA-N)
CN1CC[C@]23c4c5ccc(O)c4OC2c2[nH]ncc2C[C@H]3[C@H]1C5 (some centres undefined)	> 100 µM (inactive)	> 100 µM (inactive)	> 100 µM (inactive)	> 100 µM	> 100 µM (inactive)	> 100 µM (inactive)	> 100 µM (inactive)	> 100 µM (inactive)	> 100 µM (inactive)	> 100 µM (inactive)	> 100 µM (inactive)	> 100 µM (inactive)	94.6 µM (inactive)	> 100 µM (inactive)	> 100 µM (inactive)	> 100 µM (inactive)	–	–	–
CC1=NN(C(=O)c2ccc(Cl)cc2)C(=O)C1/N=N/c1ccc(S(=O)(=O)Nc2ncccn2)cc1 (centres undefined)	> 100 µM (inactive)	> 100 µM (inactive)	–	> 100 µM	> 100 µM (inactive)	> 100 µM (inactive)	> 100 µM (inactive)	> 100 µM (inactive)	> 100 µM (inactive)	> 100 µM (inactive)	> 100 µM (inactive)	> 100 µM (inactive)	> 100 µM (inactive)	> 100 µM (inactive)	> 100 µM (inactive)	> 100 µM (inactive)	> 100 µM (inactive)	–	–
CC1C[C@]2(C)C(=O)Nc3ccccc3[C@@H]2Nc2ccccc21 (some centres undefined)	25.1 µM (inactive)	–	30.5 µM (inactive)	34.7 µM	23.7 µM (inactive)	20 µM (inactive)	17.9 µM (inactive)	44.3 µM (inactive)	35.6 µM (inactive)	24.8 µM (inactive)	19.5 µM (inactive)	21.8 µM (inactive)	46.3 µM (inactive)	21.2 µM (inactive)	–	15.1 µM (inactive)	23.4 µM (inactive)	20.5 µM (inactive)	28.8 µM (inactive)
C=CCN1CN(c2ccccc2)C2(CCN(CCCC3(c4ccc(F)cc4)OCCO3)CC2)C1=O	21.2 µM (inactive)	–	13.3 µM (inactive)	12.5 µM	21.1 µM (inactive)	–	15.8 µM (inactive)	–	11.3 µM (inactive)	14.8 µM (inactive)	17.7 µM (inactive)	19.5 µM (inactive)	15.3 µM (inactive)	16.9 µM (inactive)	15.3 µM (inactive)	18.7 µM (inactive)	10.9 µM (inactive)	–	–
CN(/N=C\c1ccc2ccccc2c1)C1=NCCN1	15.8 µM (inactive)	12.1 µM (inactive)	24.3 µM (inactive)	25.2 µM	18.5 µM (inactive)	20.4 µM (inactive)	15.7 µM (inactive)	20.8 µM (inactive)	34.8 µM (inactive)	8.63 µM (inactive)	–	–	10.6 µM (inactive)	13.2 µM (inactive)	18 µM (inactive)	18.3 µM (inactive)	17.7 µM (inactive)	12.1 µM (inactive)	–
N#CCCN(CCN(C(=O)Nc1ccccc1)c1ccccc1)C(=O)Nc1ccccc1	58.2 µM (inactive)	42.6 µM (inactive)	17.7 µM (inactive)	> 81.5 µM	> 100 µM (inactive)	–	48.3 µM (inactive)	> 100 µM (inactive)	> 100 µM (inactive)	> 45.3 µM (inactive)	–	> 57.3 µM (inactive)	> 100 µM (inactive)	61.8 µM (inactive)	65.6 µM (inactive)	65 µM (inactive)	> 65 µM (inactive)	> 100 µM (inactive)	–
C=Cc1cc2c(cc1O)CC[C@@H]1[C@@H]2CC[C@]2(C)[C@@H](O)CC[C@@H]12	5.78 µM (inactive)	–	4.15 µM (inactive)	3.95 µM	–	–	5.11 µM (inactive)	11.2 µM (inactive)	21.3 µM (inactive)	2.56 µM (inactive)	–	4.23 µM (inactive)	5.38 µM (inactive)	12.2 µM (inactive)	4.19 µM (inactive)	–	2.06 µM (inactive)	24.4 µM (inactive)	1.45 µM (inactive)
COC(=O)CCN(CCC(=O)OC)C1CC1	> 100 µM (inactive)	–	> 100 µM (inactive)	> 100 µM	> 100 µM (inactive)	> 100 µM (inactive)	> 100 µM (inactive)	> 100 µM (inactive)	> 100 µM (inactive)	> 100 µM (inactive)	> 100 µM (inactive)	> 100 µM (inactive)	> 100 µM (inactive)	> 100 µM (inactive)	> 100 µM (inactive)	> 100 µM (inactive)	> 100 µM (inactive)	> 100 µM (inactive)	–
Cn1c2c3ccccc3nc-2c(O)c2ccccc21 [HYDROXYCRYPTOLEPINE]	> 100 µM (inactive)	–	90.6 µM (inactive)	53.3 µM	> 100 µM (inactive)	–	> 100 µM (inactive)	54.1 µM (inactive)	> 100 µM (inactive)	> 100 µM (inactive)	48.2 µM (inactive)	> 100 µM (inactive)	34.1 µM (inactive)	> 100 µM (inactive)	> 100 µM (inactive)	> 100 µM (inactive)	50.5 µM (inactive)	> 100 µM (inactive)	> 100 µM (inactive)
Cc1ccc(-c2n[nH]c(=O)n2N2C(=O)C=CC2=O)cc1	> 100 µM (inactive)	> 100 µM (inactive)	> 100 µM (inactive)	> 100 µM	> 100 µM (inactive)	> 100 µM (inactive)	–	> 100 µM (inactive)	> 100 µM (inactive)	> 100 µM (inactive)	> 100 µM (inactive)	–	–	> 100 µM (inactive)	> 100 µM (inactive)	> 100 µM (inactive)	> 100 µM (inactive)	> 100 µM (inactive)	–
O=C(CC(C(=O)c1cccs1)c1ccsc1)c1ccco1 (centres undefined)	21.6 µM (inactive)	–	19.1 µM (inactive)	21.5 µM	64.1 µM (inactive)	19.1 µM (inactive)	22.7 µM (inactive)	–	11.5 µM (inactive)	20.5 µM (inactive)	35.5 µM (inactive)	–	28 µM (inactive)	32.4 µM (inactive)	21.4 µM (inactive)	22.8 µM (inactive)	27.5 µM (inactive)	27.5 µM (inactive)	27.7 µM (inactive)
O=C1N[C@H]2c3c(Cl)sc(Cl)c3[C@@H](O)[C@H]2O1	> 100 µM (inactive)	> 100 µM (inactive)	> 100 µM (inactive)	> 100 µM	> 100 µM (inactive)	–	> 100 µM (inactive)	–	> 100 µM (inactive)	> 100 µM (inactive)	> 100 µM (inactive)	> 100 µM (inactive)	> 100 µM (inactive)	> 100 µM (inactive)	> 100 µM (inactive)	> 100 µM (inactive)	> 100 µM (inactive)	> 100 µM (inactive)	> 100 µM (inactive)
COc1ccc(C2c3c(-c4ccccc4)nn(-c4ccccc4)c3Oc3ncn(N)c(=N)c32)cc1OC (centres undefined)	2.24 µM (inactive)	4.74 µM (inactive)	2.56 µM (inactive)	1.84 µM	1.77 µM (inactive)	1.97 µM (inactive)	1.83 µM (inactive)	2.45 µM (inactive)	3.9 µM (inactive)	1.84 µM (inactive)	2.51 µM (inactive)	2.83 µM (inactive)	1.62 µM (inactive)	1.95 µM (inactive)	4.53 µM (inactive)	1.92 µM (inactive)	1.69 µM (inactive)	7.16 µM (inactive)	–
Oc1c(-c2ccccc2)sc2ccccc12	31.9 µM (inactive)	28.1 µM (inactive)	29.8 µM (inactive)	31.9 µM	16.7 µM (inactive)	43.9 µM (inactive)	25.8 µM (inactive)	37.9 µM (inactive)	27 µM (inactive)	14.7 µM (inactive)	–	34.3 µM (inactive)	12.4 µM (inactive)	72.6 µM (inactive)	29.4 µM (inactive)	49.3 µM (inactive)	44.5 µM (inactive)	31.4 µM (inactive)	–
CCOC(=O)CCC(NC(=O)Cc1ccc(Oc2nc3ccccc3nc2-c2cccs2)cc1)C(=O)OCC (centres undefined)	7.19 µM (inactive)	29.7 µM (inactive)	> 100 µM (inactive)	> 100 µM	1.73 µM (inactive)	13.6 µM (inactive)	> 100 µM (inactive)	13.5 µM (inactive)	8.97 µM (inactive)	2.3 µM (inactive)	8.89 µM (inactive)	9.29 µM (inactive)	–	19.2 µM (inactive)	11.4 µM (inactive)	38.4 µM (inactive)	5.14 µM (inactive)	19.4 µM (inactive)	–
NC(=O)C1CCN(Cc2c(Cl)c(Cl)c(CN3CCC(C(N)=O)CC3)c(Cl)c2Cl)CC1	> 100 µM (inactive)	> 100 µM (inactive)	> 100 µM (inactive)	> 100 µM	11.6 µM (inactive)	49.9 µM (inactive)	> 100 µM (inactive)	> 100 µM (inactive)	> 100 µM (inactive)	52.6 µM (inactive)	> 100 µM (inactive)	43.9 µM (inactive)	24.3 µM (inactive)	> 100 µM (inactive)	34.8 µM (inactive)	> 100 µM (inactive)	28.4 µM (inactive)	28.3 µM (inactive)	–
CSc1cnc2ccccc2c1SC1CN(Cc2ccccc2)c2ccccc2C1=O (centres undefined)	> 100 µM (inactive)	> 100 µM (inactive)	> 100 µM (inactive)	> 100 µM	32.1 µM (inactive)	–	> 100 µM (inactive)	> 100 µM (inactive)	> 100 µM (inactive)	> 100 µM (inactive)	> 100 µM (inactive)	> 100 µM (inactive)	83.4 µM (inactive)	> 100 µM (inactive)	> 100 µM (inactive)	> 100 µM (inactive)	> 100 µM (inactive)	> 100 µM (inactive)	> 100 µM (inactive)
